Measured values published in PubChem BioAssay (NCI).
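These data come from cells grown in 96-well plates and exposed to compound for 48 hours at five concentrations. At the GI50, growth is halved. TGI marks complete inhibition of growth.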

How the values were obtained:
Assay in all cases: growth of human tumour cells (NCI), 48 h; in the data active = GI50 below about 0.43 µM; inactive = the rest
[1] = test system: SR leukemia
[2] = test system: UO-31 renal
[3] = test system: SNB-19 CNS
[4] = test system: EKVX NSCLC
[5] = test system: OVCAR-5 ovarian
[6] = test system: SK-MEL-28 melanoma
[7] = test system: LOX IMVI melanoma
[8] = test system: HCC-2998 colon
[9] = test system: MDA-MB-435
[10] = test system: SF-539 CNS
[11] = test system: DU-145 prostate
[12] = test system: HOP-62 NSCLC
[13] = test system: UACC-62 melanoma
[14] = test system: SK-MEL-2 melanoma
[15] = test system: OVCAR-3 ovarian
[16] = test system: COLO 205 colon
[17] = test system: HOP-92 NSCLC
[18] = test system: SW-620 colon
[19] = test system: SF-295 CNS
[20] = test system: U251 CNS
[21] = test system: HCT-116 colon
[22] = test system: T-47D breast
[23] = test system: HL-60(TB) leukemia
[24] = test system: A498 renal
[25] = test system: SNB-75 CNS
[26] = test system: HT29 colon
[27] = test system: ACHN renal
[28] = test system: NCI-H522 lung
[29] = test system: CAKI-1 renal
[30] = test system: CCRF-CEM leukemia
[31] = test system: NCI-H460 lung
[32] = test system: UACC-257 melanoma
[33] = test system: MOLT-4 leukemia
[34] = test system: SF-268 CNS
[35] = test system: RPMI-8226 leukemia
[36] = test system: SN12C renal
[37] = test system: OVCAR-4 ovarian
[38] = test system: NCI-H23 lung
[39] = test system: TK-10 renal
[40] = test system: MDA-MB-231 breast
[41] = test system: A549 NSCLC
[42] = test system: OVCAR-8 ovarian
[43] = test system: NCI/ADR-RES ovarian
[44] = test system: K-562 leukemia
[45] = test system: SK-MEL-5 melanoma
[46] = test system: M14 melanoma
[47] = test system: MCF7 breast
[48] = test system: HCT-15 colon
[49] = test system: BT-549 breast
[50] = test system: HS 578T breast
[51] = test system: 786-0 renal
[52] = test system: MALME-3M melanoma
[53] = test system: NCI-H226 lung
[54] = test system: KM12 colon
[55] = test system: RXF 393 renal
[56] = test system: SK-OV-3 ovarian
[57] = test system: IGROV1 ovarian
[58] = test system: PC-3 prostate

CCC(CC)n1c(=O)c(SC2=NC3C(NN2)N(CC)C(=O)N3CC)c(C(=O)O)c2ccccc21 (configuration not stated)
3490 nM: TGI [15]
> 48200 nM: TGI [33]
> 71900 nM: TGI [40]
> 57000 nM: TGI [12]
inactive: GI50 [1] 805 nM | GI50 [2] 1540 nM | GI50 [3] 1660 nM | GI50 [4] 6670 nM | GI50 [5] 1280 nM | GI50 [6] 2200 nM | GI50 [7] 1260 nM | GI50 [8] 1080 nM | GI50 [9] 2030 nM | GI50 [10] 811 nM | GI50 [11] 1300 nM | GI50 [12] 1460 nM | GI50 [13] 1200 nM | GI50 [14] 1080 nM | GI50 [15] 966 nM | GI50 [16] 771 nM | GI50 [17] 18300 nM | GI50 [18] 1480 nM | GI50 [19] 1020 nM | GI50 [20] 1130 nM | GI50 [21] 1010 nM | GI50 [22] 6140 nM | GI50 [23] 767 nM | GI50 [24] 33700 nM | GI50 [25] 1210 nM | GI50 [26] 909 nM | GI50 [27] 1580 nM | GI50 [28] 578 nM | GI50 [29] 1220 nM | GI50 [30] 1130 nM | GI50 [31] 1110 nM | GI50 [32] 5530 nM | GI50 [33] 1150 nM | GI50 [34] 2030 nM | GI50 [35] 3760 nM | GI50 [36] 1310 nM | GI50 [37] 6560 nM | GI50 [38] 3590 nM | GI50 [39] 14500 nM | GI50 [40] 1270 nM | GI50 [41] 1510 nM | GI50 [42] 1050 nM | GI50 [43] 974 nM | GI50 [44] 1000 nM | GI50 [45] 1380 nM | GI50 [46] 1050 nM | GI50 [47] 1030 nM | GI50 [48] 969 nM | GI50 [49] 1470 nM | GI50 [50] 1220 nM | GI50 [51] 1530 nM | GI50 [52] 2660 nM | GI50 [53] 1110 nM | GI50 [54] 1200 nM | GI50 [55] 805 nM | GI50 [56] 1450 nM | GI50 [57] 1500 nM | GI50 [58] 1250 nM
> 89800 nM: TGI [39]
7640 nM: TGI [45]
2300 nM: TGI [23]
> 49000 nM: TGI [1]
32300 nM: TGI [29]
1460 nM: TGI [28]
> 33400 nM: TGI [25]
> 46800 nM: TGI [19]
> 100000 nM: TGI [2] | TGI [3] | TGI [4] | TGI [5] | TGI [6] | TGI [7] | TGI [11] | TGI [17] | TGI [18] | TGI [20] | TGI [22] | TGI [27] | TGI [30] | TGI [32] | TGI [34] | TGI [35] | TGI [36] | TGI [37] | TGI [38] | TGI [41] | TGI [44] | TGI [47] | TGI [48] | TGI [51] | TGI [52] | TGI [54] | TGI [57] | TGI [58]
> 33700 nM: TGI [21]
3280 nM: TGI [55]
5010 nM: TGI [9]
99200 nM: TGI [50]
> 55000 nM: TGI [14]
> 55200 nM: TGI [46]
36500 nM: TGI [13]
6720 nM: TGI [49]
2380 nM: TGI [10]
> 54100 nM: TGI [31]
5780 nM: TGI [53]
> 87200 nM: TGI [24]
1830 nM: TGI [16]
> 94100 nM: TGI [56]
